Measurements published in patent publication US20250163104A1, “MACROCYCLIC IMMUNOMODULATORS” (priority 2021, published 2025).
Where a SMILES comes first, the peptide text is derived from it. Bridges are numbered along the chain shown (N, C = ends). [ ]: non-standard residue; d: D form. The star is where a group is joined. ξ: configuration not given here. Phe(4-COOH) = N[C@@H](Cc1ccc(C(=O)O)cc1)C(=O)O; Bip = N[C@@H](Cc1ccc(-c2ccccc2)cc1)C(=O)O; Phe(4-NH2) = Nc1ccc(C[C@H](N)C(=O)O)cc1; Phe(3-Me) = Cc1cccc(C[C@H](N)C(=O)O)c1; 4Pal = N[C@@H](Cc1ccncc1)C(=O)O; 2Thi = N[C@@H](Cc1cccs1)C(=O)O; Cha = N[C@@H](CC1CCCCC1)C(=O)O; Cit = NC(=O)NCCC[C@H](N)C(=O)O; Thr(3ξ) = CC(O)[C@H](N)C(=O)O; dDab = NCC[C@@H](N)C(=O)O; Carboxymethyl = O=C(O)C*; Orn = NCCC[C@H](N)C(=O)O; Dab = NCC[C@H](N)C(=O)O; Dap = NC[C@H](N)C(=O)O

Biological target: T1, human PD-1 / PD-L1-Ig binding on Jurkat cell line over-expressing human PD-1 (Jurkat-PD-1) (Homo sapiens, UniProt Q15116)
T1 construct: expressed in transfected cells; host or cells: Jurkat
T1 sequence (Q15116 25-288): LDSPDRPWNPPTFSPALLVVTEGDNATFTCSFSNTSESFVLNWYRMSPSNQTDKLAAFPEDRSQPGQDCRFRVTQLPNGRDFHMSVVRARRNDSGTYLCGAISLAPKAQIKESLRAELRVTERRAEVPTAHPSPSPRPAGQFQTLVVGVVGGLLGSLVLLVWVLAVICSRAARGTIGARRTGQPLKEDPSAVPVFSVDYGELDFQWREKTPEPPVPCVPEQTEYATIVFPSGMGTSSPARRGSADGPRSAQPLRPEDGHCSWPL
Experiment: Jurkat-PD-1 Cell Binding High-Content Screening Assay (CBA)
Type: cell-based
Details: Jurkat-PD-1 cells, PE-labeled PD-L1-Ig 20 nM final; read-out: Jurkat HPD1_PDL1 IC50
In short: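 Compounds were preincubated with Jurkat-hPD-1 cells in DMEM plus 10% fetal calf serum for 2 h at 37° C. Phycoerythrin-labeled PD-L1-Ig (20 nM final) was then added for 1 hour. Cells were fixed in 4% paraformaldehyde with Hoechst 33342, and bound fluorescence was quantified by high-content imaging.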

| Compound | IC50 [nM] |
| --- | --- |
| Cc1cccc(C[C@@H]2NC(=O)[C@H](CC(=O)O)NC(=O)[C@H](Cc3ccc(C(=O)O)cc3)NC(=O)[C@H](Cc3ccncc3)NC(=O)CSC[C@@H](C(=O)N[C@H](CC(N)=O)C(N)=O)NC(=O)[C@H]([C@@H](C)O)NC(=O)[C@H](C(C)C)NC(=O)[C@H](CC3CCCCC3)NC(=O)[C@H](CCN)NC(=O)[C@@H](CC(C)C)NC(=O)[C@H](CCCN)NC(=O)[C@H](Cc3ccc(O)cc3)NC(=O)[C@H](Cc3ccc(-c4ccccc4)cc3)NC(=O)[C@H](C(C)C)NC2=O)c1 [Compound 2290] ({CH2CO}-[4Pal][Phe(4-COOH)]D[Phe(3-Me)]V[Bip]Y[Orn][dL][Dab][Cha]VTC[dN]-NH2; thioether N-14) | 13.5 |
| CC(C)C[C@@H]1NC(=O)[C@H](CCN)NC(=O)[C@@H](CC(C)C)NC(=O)[C@H](CCCN)NC(=O)[C@H](C(C)C)NC(=O)[C@H](Cc2ccc(-c3ccccc3)cc2)NC(=O)[C@H](C(C)C)NC(=O)[C@H](Cc2c[nH]c3ccccc23)NC(=O)[C@H](CC(=O)O)NC(=O)[C@H](Cc2ccc(O)cc2)NC(=O)[C@H](CC(N)=O)NC(=O)CSC[C@@H](C(=O)N[C@@H](C)C(N)=O)NC(=O)[C@H]([C@@H](C)O)NC(=O)[C@H](C(C)C)NC1=O [Compound 1015] ({CH2CO}-NYDWV[Bip]V[Orn][dL][Dab]LVTCA-NH2; thioether N-14) | 23.8 |
| Cc1cccc(C[C@@H]2NC(=O)[C@H](CC(=O)O)NC(=O)[C@H](Cc3ccc(OCC(=O)O)cc3)NC(=O)[C@H](CN)NC(=O)CSC[C@@H](C(N)=O)NC(=O)[C@H](CCC(N)=O)NC(=O)[C@H](C(C)C)NC(=O)[C@H](CC3CCCCC3)NC(=O)[C@H](CCN)NC(=O)[C@@H](CC(C)C)NC(=O)[C@H](CCCN)NC(=O)[C@H](Cc3ccc(OCC(=O)O)cc3)NC(=O)[C@H](Cc3ccc(-c4ccccc4)cc3)NC(=O)[C@H](Cc3ccc(OCC(=O)O)cc3)NC2=O)c1 [Compound 1782] ({CH2CO}-[Dap]Y(Carboxymethyl)D[Phe(3-Me)]Y(Carboxymethyl)[Bip]Y(Carboxymethyl)[Orn][dL][Dab][Cha]VQC-NH2; thioether N-14) | 23.6 |
| CC(C)C[C@H]1NC(=O)[C@H](CCCN)NC(=O)[C@H](CCCCN)NC(=O)[C@H](Cc2ccc(-c3ccccc3)cc2)NC(=O)[C@H](C(C)C)NC(=O)[C@H](Cc2c[nH]c3ccccc23)NC(=O)[C@H](CC(=O)O)NC(=O)[C@H](Cc2ccc(C(=O)O)cc2)NC(=O)[C@H](Cc2ccc(OCC(=O)O)cc2)NC(=O)CSC[C@@H](C(=O)N[C@@H](C)C(N)=O)NC(=O)[C@H]([C@@H](C)O)NC(=O)[C@H](C(C)C)NC(=O)[C@H](CC2CCCCC2)NC(=O)[C@H](CCN)NC1=O [Compound 1385] ({CH2CO}-Y(Carboxymethyl)[Phe(4-COOH)]DWV[Bip]K[Orn][dL][Dab][Cha]VTCA-NH2; thioether N-14) | 6.1 |
| CC(C)C[C@H]1NC(=O)[C@H](CCCN)NC(=O)[C@H](Cc2cnc[nH]2)NC(=O)[C@H](Cc2ccc(-c3ccccc3)cc2)NC(=O)[C@H](C(C)C)NC(=O)[C@H](Cc2c[nH]c3ccccc23)NC(=O)[C@H](CC(=O)O)NC(=O)[C@H](Cc2ccc(OCC(=O)O)cc2)NC(=O)[C@H](C(C)O)NC(=O)CSC[C@@H](C(=O)N[C@@H](CC(N)=O)C(N)=O)NC(=O)[C@H](CO)NC(=O)[C@H](C(C)C)NC(=O)[C@H](CC2CCCCC2)NC(=O)[C@H](CCN)NC1=O (stereo partly drawn) [Compound 2561] ({CH2CO}-[Thr(3ξ)]Y(Carboxymethyl)DWV[Bip]H[Orn][dL][Dab][Cha]VSCN-NH2; thioether N-14) | 8.2 |
| Cc1cccc(C[C@@H]2NC(=O)[C@H](CC(=O)O)NC(=O)[C@H](Cc3ccc(OCC(=O)O)cc3)NC(=O)[C@H](CN)NC(=O)CSC[C@@H](C(=O)N[C@@H](CCN)C(N)=O)NC(=O)[C@H](CCCN)NC(=O)[C@H](C(C)C)NC(=O)[C@H](CC3CCCCC3)NC(=O)[C@H](CCN)NC(=O)[C@@H](CC(C)C)NC(=O)[C@@H](CCN)NC(=O)[C@H](Cc3ccc(O)cc3)NC(=O)[C@H](Cc3ccc(-c4ccccc4)cc3)NC(=O)[C@H](Cc3ccc(O)cc3)NC2=O)c1 [Compound 2039] ({CH2CO}-[Dap]Y(Carboxymethyl)D[Phe(3-Me)]Y[Bip]Y[dDab][dL][Dab][Cha]V[Orn]C[Dab]-NH2; thioether N-14) | 12.9 |

Continued, values first:

| IC50 [nM] | Compound |
| --- | --- |
| 12.6 | CC(C)C[C@H]1NC(=O)[C@H](CCCN)NC(=O)[C@H](CCCNC(N)=O)NC(=O)[C@H](Cc2ccc(-c3ccccc3)cc2)NC(=O)[C@H](C(C)C)NC(=O)[C@H](Cc2c[nH]c3ccccc23)NC(=O)[C@H](CC(=O)O)NC(=O)[C@H](Cc2ccc(OCC(=O)O)cc2)NC(=O)[C@H](CN)NC(=O)CSC[C@@H](C(=O)N[C@@H](C)C(N)=O)NC(=O)[C@H]([C@@H](C)O)NC(=O)[C@H](C(C)C)NC(=O)[C@H](CC2CCCCC2)NC(=O)[C@H](CCN)NC1=O [Compound 1308] ({CH2CO}-[Dap]Y(Carboxymethyl)DWV[Bip][Cit][Orn][dL][Dab][Cha]VTCA-NH2; thioether N-14) |
| 5.6 | CC(C)C[C@@H]1NC(=O)[C@H](Cc2c[nH]c3ccccc23)NC(=O)[C@H](CC(=O)O)NC(=O)[C@H](Cc2ccc(OCC(=O)O)cc2)NC(=O)[C@H](CN)NC(=O)CSC[C@@H](C(=O)NCC(N)=O)NC(=O)[C@H](CO)NC(=O)[C@H](C(C)C)NC(=O)[C@H](CC(C)C)NC(=O)[C@H](CCN)NC(=O)[C@@H](CC(C)C)NC(=O)[C@H](CCCN)NC(=O)[C@H](C(C)C)NC(=O)[C@H](Cc2ccc(-c3ccccc3)cc2)NC1=O [Compound 1257] ({CH2CO}-[Dap]Y(Carboxymethyl)DWL[Bip]V[Orn][dL][Dab]LVSCG-NH2; thioether N-14) |
| 112 | COc1cccc(C[C@@H]2NC(=O)[C@H](CC(=O)O)NC(=O)[C@H](Cc3ccc(OCC(=O)O)cc3)NC(=O)[C@H](CN)NC(=O)CSC[C@@H](C(=O)N[C@@H](C)C(N)=O)NC(=O)[C@H]([C@@H](C)O)NC(=O)[C@H](C(C)C)NC(=O)[C@H](CC3CCCCC3)NC(=O)[C@H](CCN)NC(=O)[C@@H](CC(C)C)NC(=O)[C@H](CCCN)NC(=O)[C@H](CCC(=O)O)NC(=O)[C@H](Cc3ccc(-c4ccccc4)cc3)NC(=O)[C@H](C(C)C)NC2=O)c1 [Compound 1467] |
| 26.5 | CC(C)C[C@H]1NC(=O)[C@H](CCCN)NC(=O)[C@H](CCC(=O)O)NC(=O)[C@H](Cc2ccc(-c3ccccc3)cc2)NC(=O)[C@H](C(C)C)NC(=O)[C@H](Cc2cccs2)NC(=O)[C@H](CC(=O)O)NC(=O)[C@H](Cc2ccncc2)NC(=O)[C@H](Cc2ccc(OCC(=O)O)cc2)NC(=O)CSC[C@@H](C(=O)N[C@@H](C)C(N)=O)NC(=O)[C@H]([C@@H](C)O)NC(=O)[C@H](C(C)C)NC(=O)[C@H](CC2CCCCC2)NC(=O)[C@H](CCN)NC1=O [Compound 2202] ({CH2CO}-Y(Carboxymethyl)[4Pal]D[2Thi]V[Bip]E[Orn][dL][Dab][Cha]VTCA-NH2; thioether N-14) |
| 18.1 | CC(C)C[C@H]1NC(=O)[C@H](CCCN)NC(=O)[C@H](C(C)C)NC(=O)[C@H](Cc2ccc(-c3ccccc3)cc2)NC(=O)[C@H](C(C)C)NC(=O)[C@H](Cc2ccc(N)cc2)NC(=O)[C@H](CC(=O)O)NC(=O)[C@H](Cc2ccc(OCC(=O)O)cc2)NC(=O)[C@H](CN)NC(=O)CSC[C@@H](C(=O)N[C@@H](CCN)C(N)=O)NC(=O)[C@H](CCCCN)NC(=O)[C@H](C(C)C)NC(=O)[C@H](CC2CCCCC2)NC(=O)[C@H](CCN)NC1=O [Compound 2032] ({CH2CO}-[Dap]Y(Carboxymethyl)D[Phe(4-NH2)]V[Bip]V[Orn][dL][Dab][Cha]VKC[Dab]-NH2; thioether N-14) |
| 23.3 | Cc1cccc(C[C@@H]2NC(=O)[C@H](CC(=O)O)NC(=O)[C@H](Cc3ccc(OCC(=O)O)cc3)NC(=O)[C@H]([C@@H](C)O)NC(=O)CSC[C@@H](C(N)=O)NC(=O)[C@H](CC(N)=O)NC(=O)[C@H](C(C)C)NC(=O)[C@H](CC3CCCCC3)NC(=O)[C@H](CCN)NC(=O)[C@@H](CC(C)C)NC(=O)[C@H](CCCN)NC(=O)[C@H](Cc3ccc(OCC(=O)O)cc3)NC(=O)[C@H](Cc3ccc(-c4ccccc4)cc3)NC(=O)[C@H](Cc3ccc(OCC(=O)O)cc3)NC2=O)c1 [Compound 1797] ({CH2CO}-TY(Carboxymethyl)D[Phe(3-Me)]Y(Carboxymethyl)[Bip]Y(Carboxymethyl)[Orn][dL][Dab][Cha]VNC-NH2; thioether N-14) |
| 42.9 | CC(C)C[C@@H]1NC(=O)[C@H](CCN)NC(=O)[C@@H](CC(C)C)NC(=O)[C@H](CCCN)NC(=O)[C@H](CCCNC(=N)N)NC(=O)[C@H](Cc2ccc(-c3ccccc3)cc2)NC(=O)[C@H](C(C)C)NC(=O)[C@H](Cc2c[nH]c3ccccc23)NC(=O)[C@H](CC(=O)O)NC(=O)[C@H](Cc2ccc(C(=O)O)cc2)NC(=O)[C@H](Cc2ccc(OCC(=O)O)cc2)NC(=O)CSC[C@@H](C(=O)N[C@@H](C)C(N)=O)NC(=O)[C@H]([C@@H](C)O)NC(=O)[C@H](C(C)C)NC1=O [Compound 1243] ({CH2CO}-Y(Carboxymethyl)[Phe(4-COOH)]DWV[Bip]R[Orn][dL][Dab]LVTCA-NH2; thioether N-14) |
| 9.4 | Cc1cccc(C[C@@H]2NC(=O)[C@H](CC(=O)O)NC(=O)[C@H](Cc3ccc(OCC(=O)O)cc3)NC(=O)[C@H](CN)NC(=O)CSC[C@@H](C(=O)N[C@@H](C)C(=O)N[C@@H](CCC(=O)O)C(N)=O)NC(=O)[C@H]([C@@H](C)O)NC(=O)[C@H](C(C)C)NC(=O)[C@H](CC3CCCCC3)NC(=O)[C@H](CCN)NC(=O)[C@@H](CC(C)C)NC(=O)[C@H](CCCN)NC(=O)[C@H](CCCNC(N)=O)NC(=O)[C@H](Cc3ccc(-c4ccccc4)cc3)NC(=O)[C@H](C(C)C)NC2=O)c1 [Compound 1297] ({CH2CO}-[Dap]Y(Carboxymethyl)D[Phe(3-Me)]V[Bip][Cit][Orn][dL][Dab][Cha]VTCAE-NH2; thioether N-14) |
